Legend:
[1] = 4-day repeat dose dog liver biopsy study; assay type: in vivo; conditions: Compound 1 dosed orally at 1 mg/kg
Experimental: (§1) This was believed to be attributed to the unique prodrug moiety in Compound 1, which is different from that in sofosbuvir. See paragraphs [0017]. [0018] and [0019] of U.S. patent application Ser. No. 15/254,342. In 4-day repeat dose dog liver biopsy study, Compound 1 dosed orally at 1 mg/kg delivered the similar liver triphosphate levels as sofosbuvir dosed orally at 5 mg/kg. Further modeling provided that 75 mg Compound 1 once daily dosing in human patients would match the liver triphosphate Cmax achieved by 400 mg sofosbuvir once daily dosing, that 80 mg Compound 1 once daily dosing in human patients would match the liver triphosphate AUC0-24 achieved by 400 mg sofosbuvir once daily dosing, and that 16 mg Compound 1 once daily dosing in human patients would maintain Cmin above GT1b polymerase EC50. The model that was used to translate dog study results to human liver pharmacokinetics was validated by sofosbuvir data.

[2] = as described in Example 41 of U.S. patent application Ser. No. 15/254,342; cited from earlier work
[3] = modeling translating dog study results to human liver pharmacokinetics; conditions: modeled from dog study, once daily dosing
Experimental: as §1

CCOC(=O)C(C)(C)N[P@](=O)(OC[C@H]1O[C@@H](n2ccc(=O)[nH]c2=O)[C@@](F)(Br)[C@@H]1O)Oc1ccccc1 [Compound 1]
liver triphosphate levels compared with sofosbuvir dosed orally at 5 mg/kg [1]: similar
active triphosphate profiles as compared to sofosbuvir [2]: significantly improved
once daily dose in human patients that would maintain Cmin above GT1b polymerase EC50 [3]: 16 mg
once daily dose in human patients that would match the liver triphosphate AUC0-24 achieved by 400 mg sofosbuvir once daily [3]: 80 mg
once daily dose in human patients that would match the liver triphosphate Cmax achieved by 400 mg sofosbuvir once daily [3]: 75 mg

— US20190358214A1, “Compositions and Methods for Treating HCV Infection” (AbbVie Inc., priority 2016, published 2019)
